Converted amounts (≈) assume the structure as drawn. Read-outs that look alike come from different tables or passages of the source. Starred links: 1 amine or outer side, 2 acyl side, 3 side chain; linkers in the order of their positions; H or OH if unused. Positions of bridges follow the written chain, without caps; N, C: chain ends. Residues, ends and D or L forms follow the SMILES beside them. *: point of attachment. C20 diacid = O=C(O)CCCCCCCCCCCCCCCCCCC(=O)*; γGlu = O=C(O)[C@H](CCC(=O)[*:2])N[*:1]

Series [1] has as its target T1, human amylin receptor (amylin 3(a) receptor: human calcitonin receptor + RAMP-3) (Homo sapiens, UniProt O60896+P30988).
T1 construct: expressed in transfected cells; host or cells: BHK570
T1 sequence (P30988 25-474): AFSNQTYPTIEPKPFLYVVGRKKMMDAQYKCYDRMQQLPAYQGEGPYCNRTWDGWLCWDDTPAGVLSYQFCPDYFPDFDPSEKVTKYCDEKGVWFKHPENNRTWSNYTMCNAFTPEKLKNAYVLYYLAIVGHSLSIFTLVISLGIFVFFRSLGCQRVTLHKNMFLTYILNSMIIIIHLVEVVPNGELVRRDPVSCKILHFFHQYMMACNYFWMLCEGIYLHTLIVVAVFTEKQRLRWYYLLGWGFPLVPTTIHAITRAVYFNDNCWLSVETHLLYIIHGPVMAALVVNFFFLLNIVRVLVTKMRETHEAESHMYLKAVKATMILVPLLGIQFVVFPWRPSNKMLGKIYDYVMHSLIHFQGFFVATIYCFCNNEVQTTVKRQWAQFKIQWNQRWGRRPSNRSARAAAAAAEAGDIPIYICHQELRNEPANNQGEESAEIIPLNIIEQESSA
T1 sequence (O60896 24-148 partner): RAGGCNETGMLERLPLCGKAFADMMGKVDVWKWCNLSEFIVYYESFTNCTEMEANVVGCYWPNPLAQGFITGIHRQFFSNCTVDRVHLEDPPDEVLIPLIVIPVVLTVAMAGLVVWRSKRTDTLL
Nature of the series: Assay (II)a functional CRE-luciferase assay, human amylin receptor. The class given is cell-based. Conditions: Table 2; BHK amylin 3(a)-receptor/CRE-luc cells.

The target of series [2] is T2, human calcitonin receptor (Homo sapiens, UniProt P30988).
T2 construct: expressed in transfected cells; host or cells: BHK570
T2 sequence (P30988 25-474): T1 sequence (P30988 25-474)
Nature of the series: Assay (II)a functional CRE-luciferase assay, human calcitonin receptor. Format: cell-based.

Series [3] is described as follows: Assay (III) ThT fibrillation assay for physical stability. The class given is physicochemical. The method in brief:
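Freshly prepared formulations, pH-adjusted, with 1 μM ThT; four or eight replicates incubated at 37 °C under 960 rpm orbital shaking. Fluorescence (ex 444/em 485 nm) read every 20 min; […]. Peptide concentration measured by RP-HPLC before and after the run.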

The nature of series [4]: Assay (IV) determination of solubility. Format: physicochemical. The method, boiled down: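 Stock ~500 nmol/ml in water; 1:1 with 100 mM buffer, pH 3.0–8.0 (glycylglycine ≤5.0, bistrispropane ≥6.0); 18 h RT; spin; HPLC quantitation of soluble polypeptide.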
Where [5] appears, read: bistrispropane buffer, pH 6, pH 6.0, read-out: Solubility pH 6.0.
[6] abbreviates: bistrispropane buffer, pH 6.5, pH 6.5, read-out: Solubility pH 6.5.
Setting [7] is: bistrispropane buffer, pH 7, pH 7.0, 18 hours at room temperature, Table 3, read-out: Solubility pH 7.0.
[8] abbreviates: bistrispropane buffer, pH 7, pH 7.0, read-out: Solubility pH 7.0.
The mark [9] stands for this setting: bistrispropane buffer, pH 7.5, pH 7.5, read-out: Solubility pH 7.5.
Where [10] appears, read: bistrispropane buffer, pH 8, pH 8.0, read-out: Solubility pH 8.0.
The mark [11] stands for this setting: glycylglycine buffer, pH 3, pH 3.0, read-out: Solubility pH 3.0.
Setting [12] is: glycylglycine buffer, pH 4, pH 4.0, 18 hours at room temperature, Table 2, read-out: Solubility pH 4.0.
[13] abbreviates: glycylglycine buffer, pH 4, pH 4.0, read-out: Solubility pH 4.0.
[14] abbreviates: glycylglycine buffer, pH 5, pH 5.0, read-out: Solubility pH 5.0.
Setting [15] is: Table 7, human calcitonin (CTa) receptor.

As to `CC[C@H](C)[C@H](NC(=O)[C@@H]1CCCN1C(=O)CNC(=O)[C@H](Cc1ccccc1)NC(=O)[C@H](CCC(N)=O)NC(=O)[C@H](CCC(N)=O)NC(=O)[C@H](CO)NC(=O)[C@H](CO)NC(=O)[C@H](Cc1c[nH]cn1)NC(=O)[C@H](CCCNC(=N)N)NC(=O)[C@H](CC(C)C)NC(=O)[C@H](Cc1ccccc1)NC(=O)[C@H](CCC(=O)O)NC(=O)[C@H](C)NC(=O)[C@H](CC(C)C)NC(=O)[C@H](CCCNC(=N)N)NC(=O)[C@H](CCC(N)=O)NC(=O)[C@@H](NC(=O)[C@H](C)NC(=O)[C@@H]1CSSC[C@H](NC(=O)[C@H](CCC(=O)O)NC(=O)[C@H](CCCNC(=N)N)NC(=O)[C@H](CCC(=O)O)NC(=O)CC[C@H](NC(=O)CCCCCCCCCCCCCCCCCCC(=O)O)C(=O)O)C(=O)N[C@@H](CC(N)=O)C(=O)N[C@@H]([C@@H](C)O)C(=O)N[C@@H](C)C(=O)N[C@@H]([C@@H](C)O)C(=O)N1)[C@@H](C)O)C(=O)N[C@@H](CC(C)C)C(=O)N1CCC[C@H]1C(=O)N1CCC[C@H]1C(=O)N[C@H](C(=O)N[C@@H](CCC(N)=O)C(=O)N[C@H](C(=O)NCC(=O)N[C@@H](CO)C(=O)N[C@@H](CCC(N)=O)C(=O)N[C@H](C(=O)N1CCC[C@H]1C(N)=O)[C@@H](C)O)C(C)C)[C@@H](C)O` [Example 164, N-alpha-[(S)-4-Carboxy-4-(19-carboxynonadecanoylamino)butyryl]-Glu-Arg-[Glu1,Glu14,Arg17,Gln21,Gln22,Gln31,Gln35,Pro37]-pramlintide] ({C20 diacid-γGlu}-ERECNTATCATQRLAEFLRHSSQQFGPILPPTQVGSQTP-NH2; disulfide 4-9 (inferred)), the EC50 in series [1] worked out at 1.71 nM; in series [2] (Table 11, read-out: CTa receptor human EC50) it was 3.57 nM. In addition, the “ThT pH 4.0 lag time” value in series [3] (Table 8), in series [3] (Table 9) and in series [3] (ThT fibrillation assay) was above 45 h throughout. In addition, in series [3] (ThT fibrillation assay), the “ThT pH 4.0 lag time (h)” value is recorded as above 45 h. Besides, the solubility at 18 h was above 200 µM in series [4] (setting [5]); above 200 µM in series [4] (setting [6]); above 200 µM in series [4] (setting [7]); above 200 µM in series [4] (bistrispropane buffer, pH 7, pH 7.0, Table 8, read-out: Solubility pH 7.0); above 200 µM in series [4] (bistrispropane buffer, pH 7, pH 7.0, Table 9, read-out: Solubility pH 7.0); above 200 µM in series [4] (setting [8]). The solubility at 18 h in series [4] (bistrispropane buffer, pH 7.5, pH 7.5, Table 9, read-out: Solubility pH 7.5) is above 200 µM; in series [4] (setting [9]), above 200 µM; in series [4] (setting [10]), above 200 µM; in series [4] (setting [11]) it was above 200 µM; in series [4] (setting [12]), above 200 µM; in series [4] (setting [13]), above 200 µM. In addition, in series [4] (setting [14]), the solubility at 18 h was above 200 µM.

As for `CC[C@H](C)[C@H](NC(=O)[C@@H]1CCCN1C(=O)CNC(=O)[C@H](Cc1ccccc1)NC(=O)[C@H](CC(N)=O)NC(=O)[C@H](CC(N)=O)NC(=O)[C@H](CO)NC(=O)[C@H](CO)NC(=O)[C@H](Cc1c[nH]cn1)NC(=O)[C@@H](NC(=O)[C@H](CC(C)C)NC(=O)[C@H](Cc1ccccc1)NC(=O)[C@H](CCC(=O)O)NC(=O)[C@H](C)NC(=O)[C@H](CC(C)C)NC(=O)[C@H](CCCNC(=N)N)NC(=O)[C@H](CCC(N)=O)NC(=O)[C@@H](NC(=O)[C@H](C)NC(=O)[C@@H]1CSSC[C@H](NC(=O)[C@H](CCCNC(=N)N)NC(=O)CNC(=O)CC[C@H](NC(=O)CCCCCCCCCCCCCCCCCCC(=O)O)C(=O)O)C(=O)N[C@@H](CC(N)=O)C(=O)N[C@@H]([C@@H](C)O)C(=O)N[C@@H](C)C(=O)N[C@@H]([C@@H](C)O)C(=O)N1)[C@@H](C)O)C(C)C)C(=O)N[C@@H](CC(C)C)C(=O)N1CCC[C@H]1C(=O)N1CCC[C@H]1C(=O)N[C@H](C(=O)N[C@@H](CC(N)=O)C(=O)N[C@H](C(=O)NCC(=O)N[C@@H](CO)C(=O)N[C@@H](CC(N)=O)C(=O)N[C@H](C(=O)N1CCC[C@H]1C(N)=O)[C@@H](C)O)C(C)C)[C@@H](C)O` [Example 102, N-alpha-[(S)-4-Carboxy-4-(19-carboxynonadecanoylamino)butyryl]-Gly-[Arg1,Glu14,Pro37]-pramlintide] ({C20 diacid-γGlu}-GRCNTATCATQRLAEFLVHSSNNFGPILPPTNVGSNTP-NH2; disulfide 3-8 (inferred); C-terminus assumed), the 50% effective concentration (EC50) in series [1] was determined as 0.0495 nM; in series [2] (setting [15]), 0.0505 nM. For the same molecule, the “ThT pH 4.0 lag time (h)” value in series [3] (ThT fibrillation assay) turned out to be 3.1 h. The solubility at 18 h is above 200 µM in series [4] (setting [5]); 198 µM (≈ 879 µg/mL) in series [4] (setting [6]); above 200 µM in series [4] (setting [7]); above 200 µM in series [4] (setting [8]); above 200 µM in series [4] (setting [9]); above 200 µM in series [4] (setting [10]). Further, the solubility at 18 h in series [4] (setting [11]), in series [4] (setting [12]), in series [4] (setting [13]) and in series [4] (setting [14]) was above 200 µM throughout.

For `CC(C)C[C@H](NC(=O)[C@H](CCCNC(=N)N)NC(=O)[C@H](CCC(N)=O)NC(=O)[C@@H](NC(=O)[C@H](C)NC(=O)[C@@H]1CSSC[C@H](NC(=O)[C@H](CCCCN)NC(=O)CC[C@H](NC(=O)CCCCCCCCCCCCCCCCCCC(=O)O)C(=O)O)C(=O)N[C@@H](CC(N)=O)C(=O)N[C@@H]([C@@H](C)O)C(=O)N[C@@H](C)C(=O)N[C@@H]([C@@H](C)O)C(=O)N1)[C@@H](C)O)C(=O)N[C@@H](C)C(=O)N[C@@H](CCC(=O)O)C(=O)N[C@@H](Cc1ccccc1)C(=O)N[C@@H](CC(C)C)C(=O)N[C@H](C(=O)N[C@@H](CCCNC(=N)N)C(=O)N[C@@H](CO)C(=O)N[C@@H](CO)C(=O)N[C@@H](CCC(N)=O)C(=O)N[C@@H](CC(N)=O)C(=O)N[C@@H](Cc1ccccc1)C(=O)NCC(=O)N[C@@H](C)C(=O)N1CCC[C@H]1C(=O)N[C@@H](CC(C)C)C(=O)N[C@@H](CO)C(=O)N[C@@H](CO)C(=O)N[C@H](C(=O)N[C@@H](CC(N)=O)C(=O)N[C@H](C(=O)NCC(=O)N[C@@H](CO)C(=O)N[C@@H](CC(N)=O)C(=O)N[C@H](C(=O)N1CCC[C@H]1C(N)=O)[C@@H](C)O)C(C)C)[C@@H](C)O)C(C)C` [Example 166, N-alpha-[(S)-4-Carboxy-4-(19-carboxynonadecanoylamino)butyryl]-[Glu14,Arg18,Gln21,Ala25,Pro26,Ser28,Ser29,Pro37]-pramlintide] ({C20 diacid-γGlu}-KCNTATCATQRLAEFLVRSSQNFGAPLSSTNVGSNTP-NH2; disulfide 2-7 (inferred); C-terminus assumed), the half-maximal effective concentration (EC50) in series [1] stood at 0.039 nM; in series [2] (setting [15]), 0.034 nM. Besides, the “ThT pH 4.0 lag time (h)” value in series [3] (ThT fibrillation assay) was found to be 1.3 h. Further, the solubility at 18 h in series [4] (setting [5]), in series [4] (setting [6]), in series [4] (setting [7]), in series [4] (setting [8]), in series [4] (setting [9]) and in series [4] (setting [10]) was above 200 µM in each case. Moreover, the solubility at 18 h in series [4] (setting [11]), in series [4] (setting [12]), in series [4] (setting [13]) and in series [4] (setting [14]) was above 200 µM throughout.

Broadly, the EC50 is the concentration that produces a half-maximal response. For orientation: solubility means how much of the substance goes into solution per volume.

The record behind these values is patent publication US8722849B2, “Polypeptides” (Novo Nordisk A/S, priority 2011, dated 2014).
